According to PMC10435995 (Life Science Alliance, 2023):

Target: T1, hDHFR (dihydrofolate reductase) (Homo sapiens, UniProt P00374)
T1 construct: gene DHFR; recombinant hDHFR (8456-DR-100; R&D Systems)
T1 sequence (P00374 1-187): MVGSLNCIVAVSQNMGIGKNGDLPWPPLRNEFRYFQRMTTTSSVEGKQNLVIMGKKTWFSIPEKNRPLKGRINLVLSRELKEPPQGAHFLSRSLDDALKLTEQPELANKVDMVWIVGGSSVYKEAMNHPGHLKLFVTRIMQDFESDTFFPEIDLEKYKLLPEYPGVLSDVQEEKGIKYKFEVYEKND
Test: ITC at […]°C without NADPH (also enzyme inhibition, CETSA, TPP)
Type: binding
Conditions: read-out: Average Kd (±s.d.)

- Kd: 0.0281 ± 0.0184 µM
Structure (SMILES): Cc1nc(N)nc(N)c1/C=C/C1(c2ccc(C(F)(F)F)cc2)CC1 [C1]
